Like-named read-outs stand apart in the source and are kept apart here.

The subject of one test is Staphylococcus Aureus. Particulars: within 5 minutes of contact time; cited from earlier work.
The next test relates to Pseudomonas Aeruginosa. The following applies: within 5 minutes of contact time; cited from earlier work.
In test [1] the test system is residual ATP (ATP-containing contamination including bacteria). The test is described as follows: ATP bioluminescence disinfection efficacy on polyester fabric contaminated with collected water. The following applies: 5 ml dropwise, after 5 minutes, before treatment Area 1: 243, Area 2: 291.
Excerpt: Bioluminescence is a practical and simple method used to quickly assess the bio-contamination of surfaces. The method has been developed based on the biochemical adenosine triphosphate (“ATP”), which is the energy molecule of all the living organisms, luciferin/luciferase, and oxygen. The reaction results in a light-emitting decay which can be detected and related to the amount of ATP.
The luminometer (in conjunction with ATP swabs) uses bioluminescence to detect residual ATP as an indicator of surface cleanliness. The presence of ATP on a surface indicates incomplete cleaning and the presence of ATP-containing contamination including bacteria.
Test results are presented as Relative Light Units (“RLU”). RLU is the unit of measurement used in bioluminescence. When a test swab is activated, a bioluminescent reaction occurs, generating light output. Luminometers measure and quantify that light with an RLU output. […]
The relationship between the amount of ATP on the sample and the RLU result reading on the luminometer is directly proportional to the amount of ATP collected from the sample. A high RLU reading indicates a large amount of ATP at the test location. […]
Cleaning properly results in less ATP at the location. Less ATP results in less light output during the bioluminescent reaction and consequently, a lower RLU reading. […]
For test [2] the test system is unchanged. The following applies: granite tile, 3 ml soaked through paper towel, after 5 minutes; before treatment Area 1: 1057, Area 2: 998.
Excerpt: Therefore, the surfaces to be evaluated had to be thoroughly cleaned and tested for contamination prior to commencing the test.
Test results are presented as Relative Light Units (“RLU”). RLU is the unit of measurement used in bioluminescence. When a test swab is activated, a bioluminescent reaction occurs, generating light output. Luminometers measure and quantify that light with an RLU output.
A high RLU reading indicates a large amount of ATP at the test location. This in turn indicates improper cleaning and the presence of contaminants.
Cleaning properly results in less ATP at the location. Less ATP results in less light output during the bioluminescent reaction and consequently, a lower RLU reading.
A granite floor tile was selected and thoroughly disinfected with hot water and a cocktail of disinfectants. It was then tested for ATP until the readings consistently indicated RLU of 0-2 which represented a surface free of ATP within the margins of error.
A sample of seemingly contaminated water was collected from a pond and left stagnant for solid settlement for 3 days.
The granite tile was covered with a paper towel and the water was added to the towel in a dropwise manner until it was completely soaked. After a few hours, soaking was repeated, and the specimen was left to dry overnight. […]

Consider `OO` [0.6 wt. % hydrogen peroxide solution, hydrogen peroxide], for which the “reduction against Staphylococcus Aureus” value in the test with Staphylococcus Aureus is roughly 1 Log. In addition, the “reduction against Pseudomonas Aeruginosa” value in the test with Pseudomonas Aeruginosa is given as less than 1 Log.

As for `OO` [6 weight percent hydrogen peroxide solution], the “reduction against Staphylococcus Aureus” value with Staphylococcus Aureus is roughly 3 Log. Further, the “reduction against Pseudomonas Aeruginosa” value in the test with Pseudomonas Aeruginosa is on record as less than 2 Log.

For the compound `CC(C)O` [commercial 70% Iso-Propyl Alcohol, Iso-Propyl Alcohol], the “ATP reading after treatment” value in test [1] came out at 22 RLU. With `OO` [hydrogen peroxide with no other additive, hydrogen peroxide], the “ATP reading after treatment” value in test [2] amounted to 82 RLU.
